Results as given in patent US5087614A, “Enzyme inhibitor and method of producing the same” (Suntory Limited, priority 1987, dated 1992).
Where a SMILES comes first, the peptide text is derived from it. [ ]: non-standard residue; d: D form. The star is where a group is joined. Sta = CC(C)C[C@H](N)[C@@H](O)CC(=O)O; Isovaleryl = CC(C)CC(=O)*

Target: T1, Pepsin (Bos taurus, UniProt P00792)
T1 construct: from tissue; host or cells: bovine pancreas (so in the source)
Test: Inhibition against pepsin (hemoglobin degradation, UV absorption at 280 nm)
Type: biochemical, Bovine
Settings: substrate 2.0% hemoglobin in 0.06N-hydrochloric acid, 35° C., 10 minutes; read-out: IC50 (concentration of the compound required to achieve 50% inhibition)
Method: (a) Inhibition against Pepsin from Bovine Pancreas
To this mixture was added (150-a) μl of 0.06N-hydrochloric acid to adjust the pH value of the mixture to 3 to 5. Each of the solutions was then mixed with a substrate solution to start the reaction. The substrate for the reaction comprised 2.0% hemoglobin in 800 μl of 0.06N-hydrochloric acid and the reaction was conducted at 35° C. for 10 minutes, the total volume of the reaction mixture being 1 ml. 3 ml of 5% trichloroacetic acid was then added to the reaction mixture to terminate the reaction. After the precipitates formed had been filtered off, the amount of protein in the trichloroacetic acid fraction which contained the components of hemoglobin hydrolyzed with pepsin was measured from the value of ultraviolet absorption at 280 nm.

T1 sequence (P00792 43-372): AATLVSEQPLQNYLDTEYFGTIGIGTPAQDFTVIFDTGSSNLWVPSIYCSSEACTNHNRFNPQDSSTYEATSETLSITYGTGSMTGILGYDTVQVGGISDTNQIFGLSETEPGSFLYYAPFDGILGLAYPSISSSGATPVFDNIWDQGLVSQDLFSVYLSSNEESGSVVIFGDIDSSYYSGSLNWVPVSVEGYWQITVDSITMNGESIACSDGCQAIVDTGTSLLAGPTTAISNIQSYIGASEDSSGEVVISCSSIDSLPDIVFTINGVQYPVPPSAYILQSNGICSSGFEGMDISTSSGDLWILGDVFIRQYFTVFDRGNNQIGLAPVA

CC(C)CC(=O)N[C@H](C(=O)N[C@H](C(=O)N[C@@H](CC(C)C)[C@@H](O)CC(=O)N[C@@H](C)C(=O)N[C@@H](CC(C)C)[C@@H](O)CC(=O)O)C(C)C)C(C)C [Pepstatin] (Isovaleryl-VV[Sta]A[Sta]-OH)
IC50: 18.3 nM
